Data from patent US11571418B2, “Platinum compounds that inhibit constitutive STAT3 signaling and induce cell cycle arrest and apoptosis of malignant cells” (H. LEE MOFFITT CANCER CENTER AND RESEARCH INSTITUTE, INC., priority 2011, dated 2023).

Biological target: T1, Stat1 (Mus musculus, UniProt P42225)
T1 construct: Nuclear extract preparation from NIH3T3 stimulated by rhIL-6, NIH3T3/hEGFR stimulated by rhEGF; endogenous in cells; host or cells: NIH3T3/hEGFR fibroblasts stimulated with rhEGF (nuclear extract)
T1 sequence (P42225 2-749 limits assumed): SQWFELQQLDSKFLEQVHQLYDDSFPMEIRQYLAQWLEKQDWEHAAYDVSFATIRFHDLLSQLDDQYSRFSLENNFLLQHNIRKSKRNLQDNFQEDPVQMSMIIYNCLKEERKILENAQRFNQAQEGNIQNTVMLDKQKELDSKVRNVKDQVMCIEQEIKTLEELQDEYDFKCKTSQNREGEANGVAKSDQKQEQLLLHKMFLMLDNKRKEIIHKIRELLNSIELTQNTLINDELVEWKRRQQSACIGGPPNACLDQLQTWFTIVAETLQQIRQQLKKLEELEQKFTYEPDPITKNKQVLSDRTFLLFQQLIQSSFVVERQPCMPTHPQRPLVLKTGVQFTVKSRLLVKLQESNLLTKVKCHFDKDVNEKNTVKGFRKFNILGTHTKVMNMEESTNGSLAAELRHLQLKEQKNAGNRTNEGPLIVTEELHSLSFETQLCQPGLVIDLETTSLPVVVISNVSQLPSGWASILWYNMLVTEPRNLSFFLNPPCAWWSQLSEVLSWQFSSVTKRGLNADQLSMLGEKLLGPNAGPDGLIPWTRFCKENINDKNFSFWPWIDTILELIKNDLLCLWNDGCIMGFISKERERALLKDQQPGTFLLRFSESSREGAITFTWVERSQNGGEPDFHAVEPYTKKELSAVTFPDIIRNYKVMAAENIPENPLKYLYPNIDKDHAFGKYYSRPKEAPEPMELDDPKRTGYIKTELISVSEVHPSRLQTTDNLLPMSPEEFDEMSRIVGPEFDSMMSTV
Assay: In vitro Stat1 DNA-binding activity assay, EMSA with hSIE or MGFe probe
Method: FIGS. 1A-1E. Inhibition of in vitro Stat3 DNA-binding activity by a platinum complex. Nuclear extracts or cell lysates containing activated Stat1, Stat3 and Stat5, or E2F1 prepared from NIH3T3/hEGFR that are stimulated with EGF or Sf-9 insect cells that are infected with baculovirus expressing Stat1, Stat3, Stat5, or E2F1, respectively, were treated with or without the indicated concentrations of platinum complex, PLATINUM-401 or Cisplatin, for 30 min at room temperature prior to incubation with radiolabeled oligonucleotide probes, and subjected to EMSA analysis. (FIG. 1A) (i) Stat1 and Stat3 binding activities to hSIE probe, (ii) Stat1 and Stat5 binding activities to MGFe probe, and (iii) plot of % oligonucleotide probe-STAT:STAT complexes versus concentration of PLATINUM-401. […] Positions of STAT: STAT-DNA complexes in gel are labeled. In (A) to (C), the control lanes represent DMSO (vehicle)-treatment.
Nuclear extract preparation and gel shift assays—Nuclear extract preparation from NIH3T3 stimulated by rhIL-6, NIH3T3/hEGFR stimulated by rhEGF, v-Src-transformed fibroblasts (NIH3T3/v-Src) or tumor cell lines and electrophoretic mobility shift assay were carried out as previously described (Turkson et al., 1998; Garcia et al., 1997; Yu et al., 1995). The ^32P-labeled oligonucleotide probes used are hSIE (high affinity sis-inducible element from the c-fos gene, m67 variant, 5′-[…]) (SEQ ID NO:1) that binds Stat1 and Stat3 (Garcia et al., 1997; Wagner et al., 1990) and MGFe (mammary gland factor element from the bovine β-casein gene promoter, 5′-AGATTTCTAGGAATTCAA) (SEQ ID NO:2) for Stat1 and Stat5 binding (49,50). Except where indicated, inhibitor compound was pre-incubated with the nuclear extract for 30 min at room temperature prior to incubation with radiolabeled probe.
Compounds from the NCI 2000 diversity set were screened for inhibition of Stat3 signaling in an in vitro DNA-binding activity assay based on analysis by electrophoretic mobility shift assay (EMSA). […]

Compound: CC(O)CN1CCN(CC(C)O)CC1 (centres unmarked) [PLATINUM-401]
- IC50: 4.1 µM
- effect on DNA-binding activity of Stat1:Stat1 homodimer (pre-incubated 30 min before probe): to a lesser extent
